Results reported in PubChem BioAssay (NCI).
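Cultured in 96-well plates, cells were exposed to test compound for 48 hours across five concentrations. GI50: concentration for 50% inhibition of growth. TGI: concentration producing complete growth inhibition.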

Experiments:
Test in all cases: DTP human tumour cell line panel, 48 h
786-0 renal = system: 786-0 renal
A498 renal = system: A498 renal
A549 NSCLC = system: A549 NSCLC
ACHN renal = system: ACHN renal
BT-549 breast = system: BT-549 breast
CAKI-1 renal = system: CAKI-1 renal
CCRF-CEM leukemia = system: CCRF-CEM leukemia
COLO 205 colon = system: COLO 205 colon
DU-145 prostate = system: DU-145 prostate
EKVX NSCLC = system: EKVX NSCLC
HCC-2998 colon = system: HCC-2998 colon
HCT-116 colon = system: HCT-116 colon
HCT-15 colon = system: HCT-15 colon
HL-60(TB) leukemia = system: HL-60(TB) leukemia
HOP-62 NSCLC = system: HOP-62 NSCLC
HOP-92 NSCLC = system: HOP-92 NSCLC
HS 578T breast = system: HS 578T breast
HT29 colon = system: HT29 colon
IGROV1 ovarian = system: IGROV1 ovarian
K-562 leukemia = system: K-562 leukemia
KM12 colon = system: KM12 colon
LOX IMVI melanoma = system: LOX IMVI melanoma
M14 melanoma = system: M14 melanoma
MALME-3M melanoma = system: MALME-3M melanoma
MCF7 breast = system: MCF7 breast
MDA-MB-231 breast = system: MDA-MB-231 breast
MDA-MB-435 = system: MDA-MB-435
MOLT-4 leukemia = system: MOLT-4 leukemia
NCI-H226 lung = system: NCI-H226 lung
NCI-H23 lung = system: NCI-H23 lung
NCI-H460 lung = system: NCI-H460 lung
NCI-H522 lung = system: NCI-H522 lung
NCI/ADR-RES ovarian = system: NCI/ADR-RES ovarian
OVCAR-3 ovarian = system: OVCAR-3 ovarian
OVCAR-4 ovarian = system: OVCAR-4 ovarian
OVCAR-5 ovarian = system: OVCAR-5 ovarian
OVCAR-8 ovarian = system: OVCAR-8 ovarian
PC-3 prostate = system: PC-3 prostate
RPMI-8226 leukemia = system: RPMI-8226 leukemia
RXF 393 renal = system: RXF 393 renal
SF-268 CNS = system: SF-268 CNS
SF-295 CNS = system: SF-295 CNS
SF-539 CNS = system: SF-539 CNS
SK-MEL-2 melanoma = system: SK-MEL-2 melanoma
SK-MEL-28 melanoma = system: SK-MEL-28 melanoma
SK-MEL-5 melanoma = system: SK-MEL-5 melanoma
SK-OV-3 ovarian = system: SK-OV-3 ovarian
SN12C renal = system: SN12C renal
SNB-19 CNS = system: SNB-19 CNS
SNB-75 CNS = system: SNB-75 CNS
SR leukemia = system: SR leukemia
SW-620 colon = system: SW-620 colon
T-47D breast = system: T-47D breast
TK-10 renal = system: TK-10 renal
U251 CNS = system: U251 CNS
UACC-257 melanoma = system: UACC-257 melanoma
UACC-62 melanoma = system: UACC-62 melanoma
UO-31 renal = system: UO-31 renal

## O=C(NNc1nc2cc(F)cc(F)c2n2cccc12)c1ncccn1
786-0 renal
  GI50: 901 nM
  TGI: > 14800 nM
A498 renal
  GI50: 1200 nM
  TGI: 5850 nM
A549 NSCLC
  GI50: 437 nM
  TGI: 8670 nM
ACHN renal
  GI50: 164 nM
  TGI: 3830 nM
BT-549 breast
  GI50: 1040 nM
  TGI: 17000 nM
CAKI-1 renal
  GI50: 336 nM
  TGI: 9500 nM
CCRF-CEM leukemia
  GI50: 327 nM
  TGI: > 30000 nM
COLO 205 colon
  GI50: 773 nM
  TGI: > 30000 nM
DU-145 prostate
  GI50: 751 nM
  TGI: > 30000 nM
EKVX NSCLC
  GI50: 409 nM
  TGI: 8710 nM
HCC-2998 colon
  GI50: 863 nM
  TGI: > 30000 nM
HCT-116 colon
  GI50: 341 nM
  TGI: > 21100 nM
HCT-15 colon
  GI50: 121 nM
  TGI: 6210 nM
HL-60(TB) leukemia
  GI50: 803 nM
  TGI: 5070 nM
HOP-62 NSCLC
  GI50: 226 nM
  TGI: 22400 nM
HOP-92 NSCLC
  GI50: 1240 nM
  TGI: 20700 nM
HS 578T breast
  GI50: 3180 nM
  TGI: > 28600 nM
HT29 colon
  GI50: 940 nM
  TGI: > 30000 nM
IGROV1 ovarian
  GI50: 420 nM
  TGI: 22400 nM
K-562 leukemia
  GI50: 1000 nM
  TGI: > 30000 nM
KM12 colon
  GI50: 537 nM
  TGI: > 30000 nM
LOX IMVI melanoma
  GI50: 487 nM
  TGI: 15800 nM
M14 melanoma
  GI50: 390 nM
  TGI: 5620 nM
MALME-3M melanoma
  GI50: 1050 nM
  TGI: 19600 nM
MCF7 breast
  GI50: 862 nM
  TGI: 10700 nM
MDA-MB-231 breast
  GI50: 1220 nM
  TGI: > 25300 nM
MDA-MB-435
  GI50: 1240 nM
  TGI: > 30000 nM
MOLT-4 leukemia
  GI50: 613 nM
  TGI: > 30000 nM
NCI-H226 lung
  GI50: 585 nM
  TGI: 6670 nM
NCI-H23 lung
  GI50: 1350 nM
  TGI: > 30000 nM
NCI-H460 lung
  GI50: 212 nM
  TGI: 3900 nM
NCI-H522 lung
  GI50: 1030 nM
  TGI: > 17000 nM
NCI/ADR-RES ovarian
  GI50: 218 nM
  TGI: 10300 nM
OVCAR-3 ovarian
  GI50: 730 nM
  TGI: > 30000 nM
OVCAR-4 ovarian
  GI50: 801 nM
  TGI: > 23700 nM
OVCAR-5 ovarian
  GI50: 1180 nM
  TGI: > 30000 nM
OVCAR-8 ovarian
  GI50: 509 nM
  TGI: > 30000 nM
PC-3 prostate
  GI50: 786 nM
  TGI: > 26800 nM
RPMI-8226 leukemia
  GI50: 1180 nM
  TGI: > 30000 nM
RXF 393 renal
  GI50: 1310 nM
  TGI: 5640 nM
SF-268 CNS
  GI50: 521 nM
  TGI: > 30000 nM
SF-295 CNS
  GI50: 176 nM
  TGI: 4990 nM
SF-539 CNS
  GI50: 728 nM
  TGI: > 16600 nM
SK-MEL-2 melanoma
  GI50: 2950 nM
  TGI: 30000 nM
SK-MEL-28 melanoma
  GI50: 682 nM
  TGI: > 30000 nM
SK-MEL-5 melanoma
  GI50: 584 nM
  TGI: 2860 nM
SK-OV-3 ovarian
  GI50: 443 nM
  TGI: 9810 nM
SN12C renal
  GI50: 1200 nM
  TGI: > 30000 nM
SNB-19 CNS
  GI50: 688 nM
  TGI: > 30000 nM
SNB-75 CNS
  GI50: 793 nM
  TGI: > 27600 nM
SR leukemia
  GI50: 221 nM
  TGI: > 30000 nM
SW-620 colon
  GI50: 1010 nM
  TGI: > 30000 nM
T-47D breast
  GI50: 1060 nM
  TGI: 22700 nM
TK-10 renal
  GI50: 427 nM
  TGI: 8020 nM
U251 CNS
  GI50: 282 nM
  TGI: > 19100 nM
UACC-257 melanoma
  GI50: 1180 nM
  TGI: 15700 nM
UACC-62 melanoma
  GI50: 377 nM
  TGI: > 9210 nM
UO-31 renal
  GI50: 116 nM
  TGI: 3670 nM
